Measurements: patent US11136370B2, “Compositions and methods for thrombin generation assay” (The Scripps Research Institute, priority 2016, dated 2021)

What was measured:
[1] = full anticoagulant dosage; cited from earlier work
[2] = Plasma concentration in treated patients; type: in vivo; conditions: human, oral, n=10, 2 hours after drug intake
[3] = target: FXa generated by Russel's viper venom (RVV) FX activator (Homo sapiens, UniProt P00742); assay: FVIII activation by FXa generated by Russel's viper venom FX activator; type: biochemical
Procedure: Thrombin was quantified with a fluorogenic substrate for calculation of % inhibition. […] Reactions were initiated by 100 pM FXa with 50 pM rTF as the phospholipid surface (top); or the preformed complex of 50 pM TF, 100 pM iFVIIa, 100 pM FXa, 5 nM NAPc2 (middle); or 50 pM TF/200 pM FVIIa/135 nM FX (bottom) in mixtures of 0.7 nM FVIII, 3 nM FV, 200 nM lepirudin, 10 nM TFPI, and 2.5 mM CaCl2 incubated for 120 s at 37° C. […] Endogenous thrombin potential (ETP, right) was calculated from the area under the TG curve (n=2).
In some experiments, prothrombin was omitted from reactions and 200 nM lepirudin was added to inactivate potentially contaminating thrombin. […] A stable complex with FXa as the only active protease was prepared with 50 pM rTF, 100 pM FVIIa-S195A (iFVIIa), 100 pM FXa and 5 nM NAPc2 incubated for 120 s at 37° C. FVIII activation by this complex was examined in reactions including FVIII, FV and lepirudin incubated for 120 s.

thrombin generation (TG) = type: biochemical, human
Procedure: TG in PRP or reconstituted PRP was evaluated as known to those skilled in the art. Native PRP was prepared from blood collected into final 12.9 mM trisodium citrate by centrifugation at 250 g for 10 min at 25° C. The platelet count was adjusted to 180×10^3/μl by dilution with homologous PPP obtained by centrifuging PRP for 10 min at 1,500 g. CTI was added at 30-50 μg/ml depending on calibrated potency as assessed by FXIIa inhibition. Reconstituted PRP was prepared with washed platelets prepared from normal PRP by adding ⅕th volume of acid citrate-dextrose (71 mM citric acid, 85 mM trisodium citrate, and 111 mM dextrose, pH 4.5) and 5 U/ml apyrase; following centrifugation at 1,500 g for 10 minutes at 25° C., the platelet pellet was resuspended into PPP lacking FVII (George King Bio-Medical) or FIX (Haematologic Technologies) to give a final platelet count of 180·103/μl PRP was mixed with varying concentrations of rTF and/or 20 pM FIXa in 96-well microtiter plates. The reaction was started by adding 18 mM CaCl2 with 360 μM of the thrombin substrate benzyloxycarbonyl-glycyl-glycyl-L-arginine coupled to the fluorogenic group 7-amido-4-methylcoumarin (Gly-Gly-Arg-AMC; Bachem Americas, Torrance, Calif.). Fluorescence was measured continuously at 37° C. for up to 40 min in a spectrofluorometer (355/460 nm excitation/emission). The rate of fluorescence intensity increase as a function of time (dF/dt) was calculated with Turbo Delphi 2006 (Borland Software Corporation, Austin, Tex.) and converted to thrombin-equivalent concentration (nM) using a calibration curve. The endogenous thrombin potential (ETP) of samples, i.e. total generated thrombin activity, was determined from the area under the TG curve. When specified, TG was measured with a discontinuous 2-stage assay with a detection limit of 5 pM. For this, TG was induced by 0.15 pM rTF and 18 mM CaCl2 in reconstituted FVII-deficient PRP including 30 μg/ml CTI with 400 pM WT FVIIa or iFVIIa without or with 20 pM FIXa. After incubation for up to 11 min at 37° C., reactions were terminated by adding 20 mM EDTA and generated thrombin was measured using the highly sensitive thrombin substrate H-D-CHA-Ala-Arg-AMC.2AcOH (Pefafluor TH, Pentapharm, Basel, Switzerland) at 50 μM concentration. In other experiments, TG was induced by TFiFVIIa-FXa-TFPI or TF-iFVIIa-FXa-NAPc2. These stable complexes were pre-formed by incubating 5 nM FXa, 10 nM TF, 10 nM iFVIIa and 40 nM TFPI or NAPc2 in the presence of 2.5 mM CaCl2 for 2 min at 37° C. Complexes were added into FVII-deficient PRP, followed by incubation for 8 min at 37° C.
PRP was prepared from blood collected into trisodium citrate (final concentration 0.0129 M) by centrifugation for at 250 g for 10 min at 25° C.; the platelet count was adjusted at 180.103 per μl by diluting with homologous platelet-poor plasma (PPP) obtained by centrifuging PRP for an additional 10 min at 1,500 g. When indicated, CTI was added at 30 to 50 μg/ml depending on calibrated potency measured by FXIIa inhibition. Reconstituted PRP was prepared by adding normal washed platelets into PPP (without or with CTI) lacking FVII, FVIII (both from George King Bio-Medical, Overland Park, Kans.) or FIX (Haematologic Technologies). […] generation in PRP was measured as described by Hemker et al. 53 μl of PRP was mixed in 96-well microtiter plates with 15 μl of a solution containing rTF and/or one of the intrinsic coagulation pathway proteases—FXIIa, FXIa or FIXa—to achieve the indicated final concentrations. Antibodies or inhibitors were also added at this point at the concentration indicated for each specific case. The reaction was started by adding between 15 and 20 μl of 100 mM CaCl2 and 2 mM fluorogenic substrate, benzyloxycarbonyl-glycyl-glycyl-L-arginine-7-amido-4-methylcoumarin (Gly-Gly-Arg-AMC; Bachem Americas, Torrance, Calif.).

FXa WT = target: T1, FXa WT (Homo sapiens, UniProt P00742); assay: FVIIIa generation by FXa WT in stable complex with TF-iFVIIa-NAPc2; type: biochemical; conditions: 1 nM rivaroxaban
T1 construct: TF-associated FVIIa has converted FX into FXa active protease
T1 sequence (P00742 41-179 limits assumed): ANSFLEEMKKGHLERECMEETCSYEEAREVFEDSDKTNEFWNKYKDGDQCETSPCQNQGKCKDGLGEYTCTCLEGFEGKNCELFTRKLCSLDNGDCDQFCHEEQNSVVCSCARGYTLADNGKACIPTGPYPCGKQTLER
T1 sequence (P00742 235-488 limits assumed): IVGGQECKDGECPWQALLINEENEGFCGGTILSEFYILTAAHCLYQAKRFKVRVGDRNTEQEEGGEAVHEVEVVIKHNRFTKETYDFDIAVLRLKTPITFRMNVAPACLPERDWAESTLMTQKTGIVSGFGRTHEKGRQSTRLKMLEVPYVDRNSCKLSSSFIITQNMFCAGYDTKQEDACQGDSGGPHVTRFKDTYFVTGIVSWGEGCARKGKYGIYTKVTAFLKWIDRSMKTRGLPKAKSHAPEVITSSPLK

FXa generated by Russel's viper venom (RVV) FX activator, sequence (P00742 41-179 limits assumed): as the sequence (P00742 41-179 limits assumed) above
FXa generated by Russel's viper venom (RVV) FX activator, sequence (P00742 235-488 limits assumed): as the sequence (P00742 235-488 limits assumed) above

O=C(NC[C@H]1CN(c2ccc(N3CCOCC3=O)cc2)C(=O)O1)c1ccc(Cl)s1 [Rivaroxaban]
peak plasma concentration [1]: 500 nM | concentration at 2 h [2]: 312 nM | FVIIIa generation, initiator RVV-X ([3]; TFPI and rivaroxaban combined, rivaroxaban as high as 450 nM): substantial inhibition | effect on FVIII activation by RVV-generated FXa ([3]; equivalent FXa levels as with TF-FVIIa): inhibited | inhibition of TG in the presence of MoAb 12C7 (thrombin generation (TG); low rivaroxaban concentrations): more pronounced inhibition | difference in dose response between rivaroxaban and apixaban (thrombin generation (TG); recalcified PRP containing CTI): ~3 fold | effect on TF-induced thrombin generation (thrombin generation (TG); recalcified PRP containing CTI): inhibited | effect on FVIII activation by FXa WT (FXa WT): almost completely inhibited
